Structures can show the parent of a compound that is named as a salt. Where two headings read alike, the source gives them in different places.
Test system: GH3-TRE-Luc cell line
Details: read-out: AC50 (uM) modified / 1000, viability, 1 nM T3 present, 24 h

CC/N=c1\cc2oc3cc(NCC)c(C)cc3c(-c3ccccc3C(=O)OCC)c-2cc1C [Rhodamine 6G]
CC50 (Tox21_110001=Tox21_201597): 0.49 µM
CC50 (Tox21_110001=Tox21_302898): 1.44 µM

CN(C)c1ccc(C(=C2C=CC(=[N+](C)C)C=C2)c2ccccc2)cc1 [Malachite green oxalate]
CC50 (Tox21_110001=Tox21_110008): 5.84 µM
CC50 (Tox21_110001=Tox21_202521): 0.0943 µM

C[C@@H]1C[C@@H]([C@H](O)CC2CC(=O)NC(=O)C2)C(=O)[C@@H](C)C1 [Cycloheximide]
CC50 (Tox21_110001=Tox21_113580): 0.256 µM
CC50 (Tox21_110001=Tox21_201158): 0.0922 µM
CC50 (Tox21_110001=Tox21_303652): 1.49 µM

c1cc(C(c2ccc(OCC3CO3)cc2)C(c2ccc(OCC3CO3)cc2)c2ccc(OCC3CO3)cc2)ccc1OCC1CO1 (stereo not drawn) [1,1,2,2-(4,4',4'',4'''-Tetraglycidyloxyphenyl)ethane]
CC50 (Tox21_110001=Tox21_202150): 25.2 µM

C=C(C)[C@H]1Cc2c(ccc3c2O[C@@H]2COc4cc(OC)c(OC)cc4[C@@H]2C3=O)O1 [Rotenone]
CC50 (Tox21_110001=Tox21_110819): 3.27 µM
CC50 (Tox21_110001=Tox21_201904): 15.5 µM
CC50 (Tox21_110001=Tox21_300695): 5.41 µM

Oc1ccc(O)cc1 [Hydroquinone]
CC50 (Tox21_110001=Tox21_110169): 16 µM
CC50 (Tox21_110001=Tox21_202345): 32.2 µM
CC50 (Tox21_110001=Tox21_300015): 21.9 µM

CCCCCCCCCCn1cc[n+](C)c1 [1-Decyl-3-methylimidazolium tetrafluoroborate]
CC50 (Tox21_110001=Tox21_200592): 13.1 µM

C=C[C@H]1C[N@@]2CC[C@H]1C[C@H]2[C@H](O)c1ccnc2ccc(OC)cc12 [Quinine]
CC50 (Tox21_110001=Tox21_112389): 42.9 µM

CCCCCCCCCCn1cc[n+](C)c1 [1-Decyl-3-methylimidazolium chloride]
CC50 (Tox21_110001=Tox21_202623): 22.3 µM

CN(C)CCOc1ccccc1Cc1ccccc1 [Phentoloxamine PAS]
CC50 (Tox21_110001=Tox21_113232): 25.5 µM

C[C@]12CC[C@@H]3c4ccc(O)cc4C[C@@H](CCCCCCCCC[S+]([O-])CCCC(F)(F)C(F)(F)F)[C@H]3[C@@H]1CC[C@@H]2O (stereo partly drawn) [Fulvestrant]
CC50 (Tox21_110001=Tox21_110939): 0.00438 µM
CC50 (Tox21_110001=Tox21_202604): 0.00683 µM
CC50 (Tox21_110001=Tox21_303656): 2.26 µM

CCCCCCCCCCn1cc[n+](C)c1 [1-Decyl-3-methylimidazolium bromide]
CC50 (Tox21_110001=Tox21_202622): 18 µM

CN(C)c1ccc(C(=O)c2ccc(N(C)C)cc2)cc1 [Michler's ketone]
CC50 (Tox21_110001=Tox21_202416): 2.74 µM

O=c1c(-c2ccc(O)cc2)coc2cc(O)cc(O)c12 [Genistein]
CC50 (Tox21_110001=Tox21_110161): 24.6 µM
CC50 (Tox21_110001=Tox21_201428): 38.3 µM
CC50 (Tox21_110001=Tox21_300585): 57.7 µM

CC(C)(C)NC(=O)[C@@H]1CN(Cc2cccnc2)CCN1C[C@@H](O)C[C@@H](Cc1ccccc1)C(=O)N[C@H]1c2ccccc2C[C@H]1O [Indinavir sulfate]
CC50 (Tox21_110001=Tox21_111687): 32 µM

CCCCCCCCCCCCn1cc[n+](C)c1 [1-Dodecyl-3-methylimidazolium bromide]
CC50 (Tox21_110001=Tox21_202628): 80.1 µM

CCN(CC)CCCC(C)Nc1ccnc2cc(Cl)ccc12 (stereo not drawn) [Chloroquine bis(phosphate)]
CC50 (Tox21_110001=Tox21_110115): 19.6 µM

Cc1cc(-c2ccc(/N=N/c3ccc4c(S(=O)(=O)O)cc(S(=O)(=O)O)c(N)c4c3O)c(C)c2)ccc1/N=N/c1ccc2c(S(=O)(=O)O)cc(S(=O)(=O)O)c(N)c2c1O [C.I. Direct Blue 53]
CC50 (Tox21_110001=Tox21_113237): 21.8 µM

CCCCCCCCCc1ccc(O)cc1 [4-Nonylphenol, branched]
CC50 (Tox21_110001=Tox21_111040): 28.7 µM
CC50 (Tox21_110001=Tox21_201528): 23.6 µM
CC50 (Tox21_110001=Tox21_300576): 22.3 µM

CCCSc1ccc2nc(NC(=O)OC)[nH]c2c1 [Albendazole]
CC50 (Tox21_110001=Tox21_110659): 0.271 µM

Oc1cccc2cccnc12 [8-Hydroxyquinoline sulfate]
CC50 (Tox21_110001=Tox21_303537): 1.43 µM

c1cnc2c(c1)ccc1cccnc12 [1,10-Phenanthroline hydrochloride hydrate]
CC50 (Tox21_110001=Tox21_301286): 7.25 µM

CCCCC(CC)COC(=O)CC(C(=O)OCC(CC)CCCC)S(=O)(=O)O (stereo not drawn) [Docusate sodium]
CC50 (Tox21_110001=Tox21_112087): 34.4 µM
CC50 (Tox21_110001=Tox21_113469): 18.8 µM
CC50 (Tox21_110001=Tox21_201342): 64.9 µM
CC50 (Tox21_110001=Tox21_300496): 57.2 µM

CC1=CC(=C(c2ccc(N)cc2)c2ccc(N)cc2)C=CC1=N [C.I. Basic Violet 14]
CC50 (Tox21_110001=Tox21_112288): 15.1 µM
CC50 (Tox21_110001=Tox21_202790): 5.54 µM

Oc1c(Cl)cc(Cl)cc1Sc1cc(Cl)cc(Cl)c1O [Bithionol]
CC50 (Tox21_110001=Tox21_110832): 12.4 µM
CC50 (Tox21_110001=Tox21_200384): 6.76 µM
CC50 (Tox21_110001=Tox21_302919): 20.3 µM

O=C1CN(/N=C/c2ccc(-c3ccc([N+](=O)[O-])cc3)o2)C(O)=N1 [Dantrolene sodium]
CC50 (Tox21_110001=Tox21_112013): 11.2 µM
CC50 (Tox21_110001=Tox21_301997): 48.2 µM

C=C(CC)C(=O)c1ccc(OCC(=O)O)c(Cl)c1Cl [Ethacrynic acid]
CC50 (Tox21_110001=Tox21_110335): 27 µM
CC50 (Tox21_110001=Tox21_201102): 65.9 µM

O=C(CCl)c1ccc(Cl)cc1Cl [2,2',4'-Trichloroacetophenone]
CC50 (Tox21_110001=Tox21_113246): 2.14 µM
CC50 (Tox21_110001=Tox21_113461): 4.54 µM

CN(C)c1ccc2nc3ccc(=[N+](C)C)cc-3sc2c1 [Methylene blue]
CC50 (Tox21_110001=Tox21_112497): 21.1 µM
CC50 (Tox21_110001=Tox21_302087): 45.4 µM

NC(N)=O [Carbamide peroxide]
CC50 (Tox21_110001=Tox21_302451): 69 µM
